Legend:
Format in all cases: in vitro ADME
Settings in all cases: human liver microsomes, single-point method
[1] = biological target: T1, CYP450 2C19 (Homo sapiens, UniProt P33261); test: CYP enzyme single-point inhibition assay, 2C19
T1 construct: Human liver microsome incubation system was used; from tissue; host or cells: human liver microsomes
Method: (§1) Human liver microsome incubation system was used, and the single-point method was used to quickly predict the inhibition on CYP450 enzyme subtypes (1A2, 2C19, 2D6, 3A4-M, and 3A4-T) by compounds.
(§2) For 2.5 mM NADPH, 4.165 mg of NADPH (reduced nicotinamide adenine dinucleotide phosphate) was weighed and 100 mM phosphate buffer was added to a final volume of 2 mL. For 0.25 mg/mL microsomes, 50 µL of 20 mg/mL microsomes was mixed with […] of 100 mM phosphate buffer evenly.
(§3) The test example compounds were weighed, diluted to 10 mM with DMSO, and then diluted to 100 µM with 100 mM phosphate buffer.
(§4) • 1. Liver microsomes (40 µL), substrate (10 µL), and test compound (10 µL) were added to a 96-well plate, and the mixture was pre-incubated for 3 min. • 2. NADPH (40 µL) was added. • 3. At 20 min, acetonitrile stop solution containing internal standard (300 µL) was added. • 4. The mixture was centrifuged and the sample was loaded.

[2] = biological target: T2, CYP450 3A4-M (Homo sapiens, UniProt P08684); test: CYP enzyme single-point inhibition assay, 3A4-M
T2 construct: Human liver microsome incubation system was used; from tissue; host or cells: human liver microsomes
Method: as §1, §2, §3, §4

[3] = biological target: T3, CYP450 1A2 (Homo sapiens, UniProt P05177); test: CYP enzyme single-point inhibition assay, 1A2
T3 construct: Human liver microsome incubation system was used; from tissue; host or cells: human liver microsomes
T3 sequence (P05177 1-516): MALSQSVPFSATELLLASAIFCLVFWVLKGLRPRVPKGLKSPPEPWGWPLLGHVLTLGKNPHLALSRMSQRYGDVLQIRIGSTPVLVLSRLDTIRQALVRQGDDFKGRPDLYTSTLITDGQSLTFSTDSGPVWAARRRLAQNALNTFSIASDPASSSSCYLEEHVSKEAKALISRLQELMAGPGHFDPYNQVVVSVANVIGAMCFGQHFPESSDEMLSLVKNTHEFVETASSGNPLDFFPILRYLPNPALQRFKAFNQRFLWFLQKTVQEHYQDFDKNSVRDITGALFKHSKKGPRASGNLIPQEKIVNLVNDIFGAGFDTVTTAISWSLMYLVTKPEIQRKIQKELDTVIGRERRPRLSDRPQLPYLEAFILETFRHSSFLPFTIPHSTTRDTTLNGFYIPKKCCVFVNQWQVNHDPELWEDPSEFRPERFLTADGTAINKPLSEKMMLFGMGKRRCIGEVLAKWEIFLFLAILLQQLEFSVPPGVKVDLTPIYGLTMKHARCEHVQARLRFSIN
Method: as §1, §2, §3, §4

T2 sequence (P08684 whole entry): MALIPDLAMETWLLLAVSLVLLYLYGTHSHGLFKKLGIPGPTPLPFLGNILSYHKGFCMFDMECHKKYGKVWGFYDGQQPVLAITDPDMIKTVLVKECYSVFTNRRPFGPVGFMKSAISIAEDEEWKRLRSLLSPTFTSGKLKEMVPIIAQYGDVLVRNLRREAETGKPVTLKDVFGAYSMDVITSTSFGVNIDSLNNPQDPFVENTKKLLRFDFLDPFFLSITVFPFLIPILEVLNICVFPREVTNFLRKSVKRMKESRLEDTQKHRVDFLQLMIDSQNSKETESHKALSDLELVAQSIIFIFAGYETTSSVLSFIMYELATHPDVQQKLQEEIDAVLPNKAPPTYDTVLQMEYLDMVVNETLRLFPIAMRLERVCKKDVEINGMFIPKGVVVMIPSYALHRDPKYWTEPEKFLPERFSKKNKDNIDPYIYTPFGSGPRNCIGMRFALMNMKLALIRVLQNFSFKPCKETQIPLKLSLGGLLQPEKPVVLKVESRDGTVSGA
T1 sequence (P33261 whole entry): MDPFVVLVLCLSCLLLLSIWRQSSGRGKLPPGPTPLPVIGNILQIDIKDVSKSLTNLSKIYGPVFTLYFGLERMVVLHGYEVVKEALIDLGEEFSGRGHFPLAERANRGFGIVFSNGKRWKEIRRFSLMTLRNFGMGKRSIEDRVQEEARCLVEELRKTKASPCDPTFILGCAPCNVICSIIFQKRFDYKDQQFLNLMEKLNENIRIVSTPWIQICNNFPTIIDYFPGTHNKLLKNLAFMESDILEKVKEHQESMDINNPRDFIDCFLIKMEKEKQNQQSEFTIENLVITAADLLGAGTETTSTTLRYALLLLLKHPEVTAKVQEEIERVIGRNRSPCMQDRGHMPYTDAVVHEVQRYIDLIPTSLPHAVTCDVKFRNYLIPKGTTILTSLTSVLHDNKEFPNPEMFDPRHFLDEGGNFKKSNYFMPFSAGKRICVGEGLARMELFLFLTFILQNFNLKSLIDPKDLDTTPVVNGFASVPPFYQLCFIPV

[2H]C([2H])(c1ccc(-c2ccccc2S(=O)(=O)Nc2noc(C)c2Cl)c(COCC)c1)N1C(=O)C2(CCCC2)N=C1CCCC [Example 2, 4'-((2-Butyl-4-oxo-1,3-diazaspiro[4.4]non-1-en-3-yl)methyl-d2)-N-(4-chloro-5-methylisoxazol-3-yl)-2'-(ethoxymethyl)-[1,1'-biphenyl]-2-sulfonamide]
IC50 [1]: > 100 µM | IC50 [2]: 14.7 µM | IC50 [3]: > 100 µM

CCCCC1=NC2(CCCC2)C(=O)N1Cc1ccc(-c2ccccc2S(=O)(=O)Nc2noc(C)c2Cl)c(COCC)c1 [Example 8, 2-[4-[(2-Butyl-4-oxo-1,3-diazaspiro[4.4]non-1-en-3-yl)methyl]-2-(ethoxymethyl)phenyl]-N-(4-chloro-5-methyl-isoxazol-3-yl)benzenesulfonamide]
IC50 [1]: > 100 µM | IC50 [2]: 24.9 µM | IC50 [3]: > 100 µM

— EP4671240A1, “SALT CONTAINING AROMATIC RING DERIVATIVE ANTAGONIST, PREPARATION METHOD THEREFOR, AND APPLICATION THEREOF” (Jiangsu Hansoh Pharmaceutical Group Co., Ltd., priority 2023, dated 2024)
